Results taken from patent US6608080B1, “Morphan derivatives or salts thereof and medicinal compositions containing the same” (Hisamitsu Pharmaceutical Co., Ltd., priority 1999, dated 2003).
Structures can show the parent of a compound that is named as a salt.

Columns and labels:
glycine receptors = assay: ionic current induced by glycine in a single neuron of the tractus solitarius nucleus, whole cell patch clamp; type: cell-based, guinea pig; parameters: key to Action (class symbol): ±: no action; +: potentiated; −: inhibited; conditions: for type of effect on glycine-induced ionic currents (in words): classification, 1 mM, example 7 at 300 μM; for Action (% of control): mean ± S.E.
Experimental: In order to confirm the excellent actions of the derivatives described in the present invention on modification of glycine receptors, the actions of various morphan derivatives against ionic current induced by glycine were evaluated in a single neuron of the tractus solitarius nucleus of a guinea pig.
The isolation of a single neuron was performed according to the method described in Kay et al. (J. Neurosci. Meth., 16, 227-238, 1986). Guinea pigs, Hartley strain, 7-10 days of age, were anesthetized, bled and decapitated and the medullae were rapidly extracted. Sliced sections, thickness 400 μm, were prepared by using a microslicer. The sliced segments obtained were incubated at 37° C. for 30 minutes, and regions of the tractus solitarius nucleus were punched out under a stereoscope. The punched out specimens were trypsinized in a 100% oxygen atmosphere at 37° C. for 30-60 minutes. The trypsinized tissues were dispersed mechanically to obtain the single neurons. Measurements of the ionic currents activated by glycine were performed using the whole cell mode of the patch clamp method. The ionic currents obtained were recorded using a pen-recorder. Administration of the test compounds was performed by the Y-tube method in which the external fluid peripheral to the cells could be changed to the test drug solution within 2 msec. (Neurosci. Lett., 103, 56-63, 1989). Concentrations of the test compounds were 1 mM, except that the highly lipophilic compound of example 7 was examined at 300 μM. All data were expressed by mean±S.E.
In Table 1, the effects of the morphan derivatives on ionic currents in single neurons from the tractus solitarius nucleus, induced by glycine at 30 μM are summarized.

GABA-induced currents = GABA-induced currents in a single neuron, whole cell patch clamp; type: cell-based, guinea pig; conditions: test compound 1 mM; GABA 30 μM (FIG. 1)
[1] = glycine 30 μM, test compound 1 mM
[2] = glycine 30 μM, test compound 300 μM

SMILES | type of effect on glycine-induced ionic currents (in words) (glycine receptors) | Action (class symbol) (glycine receptors; [1]) | Action (% of control) (glycine receptors; [1]) [%] | further results
CN1CCC2CCCC1C2 (stereo not drawn) (as salt: hydrochloric acid salt) [Example 1, 2-Methyl-2-azabicyclo[3.3.1]nonane] |  |  |  | melting point: 147 to 152 °C
CN1CCC2CCCC1C2 (stereo not drawn) [Example 1, 2-Methyl-2-azabicyclo[3.3.1]nonane] | weak action | ± | 99.7 ± 1.5 | 
CCN1CCC2CCCC1C2 (stereo not drawn) [Example 2, 2-Ethyl-2-azabicyclo[3.3.1]nonane] | potentiation action | + | 150.6 ± 14.2 | rank of action on glycine-induced current (glycine receptors; glycine 30 μM): strongest enhancing action; action against GABA-induced currents (GABA-induced currents): no action
C=CCN1CCC2CCCC1C2 (stereo not drawn) [Example 3, 2-Allyl-2-azabicyclo[3.3.1]nonane] | potentiation action | + | 138.9 ± 5.6 | 
CCC12CCCC(CCN1)C2 (stereo not drawn) [Example 4, 1-Ethyl-2-azabicyclo[3.3.1]nonane] | inhibitory action | − | 70.9 ± 2.7 | 
CCCC12CCCC(CCN1)C2 (stereo not drawn) [Example 5, 1-Propyl-2-azabicyclo[3.3.1]nonane] | potentiation action | + | 138.1 ± 7.0 | 
C1CC2CCN3CCCC3(C1)C2 (stereo not drawn) [Example 6, 5-Azatricyclo[6.3.1.0^1,5]dodecane] | potentiation action | + | 152.1 ± 16.6 | 
C=CCC12CCCC(CCN1Cc1ccccc1O)C2 (stereo not drawn) [Example 7, 2-{[1-Allyl-(2-propenyl)-2-azabicyclo[3.3.1]nonane-2-yl]methyl}phenol] |  |  |  | concentration range of concentration-dependent inhibition of glycine-induced currents (glycine receptors; FIG. 2, glycine 30 μM): 10 to 300 µM; Action (class symbol) (glycine receptors; [2]): −; Action (% of control) (glycine receptors; [2]): 60.5 ± 2.7%
